Test results: patent publication US20100016209A1, “Methods of Reducing Side Effects in Cancer Therapy” (priority 2005, published 2010)

Tests used:
[1] = test system: patients' immune cells; assay: Clinical (C): MEK therapy in a group of 19 cancer patients, analysis of patients' immune cells (FACS Calibur); type: in vivo, human; details: for Total NK (CD16+CD56) Natural killer cells, Cells/μl / Total T Cells, Cells/μl / CD4/CD3(CD8) / Total NK (CD16+CD56) Natural killer cells, in percent of total / Total T Cells, in percent of total / Total Lymphocytes (T+B+NK), in percent of total: average of 19 patients; for Total NK (CD16+CD56) Natural killer cells, Cells/μl / Total T Cells, in percent of total: before MEK 61; for Total T Cells, Cells/μl: before MEK 367; for CD4/CD3(CD8): normal 0.9-3.6, before MEK 0.61; for Total NK (CD16+CD56) Natural killer cells, in percent of total: normal 5.6-30.9, before MEK 16; for Total T Cells, in percent of total: normal range 59.5-84.6; for Total Lymphocytes (T+B+NK), in percent of total: normal range 95.0-105.0, before MEK 87
Procedure: (C) Therapy in group of patients: (1) Total patient number: 19 (2) Cancer category: colon cancer—8; ovary cancer—5; lung cancer—4; salivary gland cancer—1; stomach cancer—1. 12 patients were given MEK 3 weeks after chemotherapy; the other 7 patients were not treated with chemotherapy. (3) Schedule of MEK administration: First week—10˜30 μg/kg, daily IV (total 7 administrations per week); Second week—20˜40 μg/kg, ever other day IV (total 3 administrations per week); Third week—30˜50 μg/kg, once every three days, IV (total 2 administrations per week). (4) Thereafter, one administration each month, 100˜130 μg/kg for 6 months. (5) Observation Indicator: analysis of patients' immune cells. (6) Equipment used: Cytometer—FACS Calibur; Software—Simul Set V3.1. (7) Results (in average values):
In the above data, “after MEK” refers to after the end of MEK treatment.

[2] = test system: white blood cells of kidney cancer patient; assay: Clinical case (B): chemotherapy with a platinum compound and MEK, white blood cells analyzed by cell sorter; type: in vivo, human; details: A person; for Total T (CD3+), Percent: kidney cancer, normal 59.4-84.6; for Total T (CD3+), Percent / T Helper (CD3+, CD4+), Cell Number/μl / T Suppressor (CD3+, CD8+), Cell Number/μl / Total B (CD19+), Cell Number/μl / Total NK (CD16+/CD56+), Cell Number/μl / Total T (CD3+), Cell Number/μl / Ratio T Helper Cells/ CD3, CD4/CD3, CD8 / Total NK (CD16+/CD56+), Percent / Total B (CD19+), Percent / T Suppressor (CD3+, CD8+), Percent / T Helper (CD3+, CD4+), Percent / Lymphocytes T + B + NK, Percent: platinum compound + MEK; for Ratio T Helper Cells/ CD3, CD4/CD3, CD8: normal 0.9-3.6; for Total NK (CD16+/CD56+), Percent: normal 5.6-40.9; for Total B (CD19+), Percent: normal 6.4-22.6; for T Suppressor (CD3+, CD8+), Percent: normal 11.1-38.3; for T Helper (CD3+, CD4+), Percent: normal 28.5-60.5; for Lymphocytes T + B + NK, Percent: normal 95.0-105.0
Procedure: (B) A patient was diagnosed with a kidney cancer and was treated with chemotherapy with a platinum compound and MEK for about two months (July and August 2005). […] a person's white blood cells after analyzed by the cell sorter are presented as follows: […]

[3] = test system: patient with metastasized cancer of the "small saliva gland"
Procedure: (A) A patient of was a physician in the radiation department. They were diagnosed to have cancer of the “small saliva gland” in 1996. After radiation therapy, the tumor was removed by surgery. In 2001 it was discovered that the tumor had metastasized to their left lung and they went through a second surgery in the lung. In December of 2004, the metastasis extended into the chest, diaphragm and bone and multiple sites in the lung. They were treated with regional radiation and “immuno-therapy”. Starting in the middle of December, they were given MEK intravenously (IV) at a dose of 30 μg/kg bodyweight three times per week for one month. In the next month, they were given one administration of MEK each week at 40 μg/kg. Thereafter, one injection was done for each month at 120 μg/kg for the next 5 months.

Substance: Methionine enkephalin [MEK]
- side effects among the patients treated ([1]; MEK as supplemental agent with chemo and/or radiation therapies): helped to eliminate or reduce the extent of many side effects
- Total NK (CD16+CD56) Natural killer cells, Cells/μl ([1]; 1 month after MEK): 177 Cells/μl
- Total T Cells, Cells/μl ([1]; 1 month after MEK): 655 Cells/μl
- CD4/CD3(CD8) ([1]; 1 month after MEK): 0
- Total NK (CD16+CD56) Natural killer cells, in percent of total ([1]; 1 month after MEK): 22% of total
- Total T Cells, in percent of total ([1]; 1 month after MEK): 60% of total
- Total Lymphocytes (T+B+NK), in percent of total ([1]; 1 month after MEK): 102% of total
- Total NK (CD16+CD56) Natural killer cells, Cells/μl ([1]; 2 months after MEK): 189 Cells/μl
- Total T Cells, Cells/μl ([1]; 2 months after MEK): 587 Cells/μl
- CD4/CD3(CD8) ([1]; 2 months after MEK): 1.62
- Total NK (CD16+CD56) Natural killer cells, in percent of total ([1]; 2 months after MEK): 21% of total
- Total T Cells, in percent of total ([1]; 2 months after MEK): 66% of total
- Total Lymphocytes (T+B+NK), in percent of total ([1]; 2 months after MEK): 100% of total
- Total NK (CD16+CD56) Natural killer cells, Cells/μl ([1]; 3 months after MEK): 306 Cells/μl
- Total T Cells, Cells/μl ([1]; 3 months after MEK): 539 Cells/μl
- CD4/CD3(CD8) ([1]; 3 months after MEK): 1.51
- Total NK (CD16+CD56) Natural killer cells, in percent of total ([1]; 3 months after MEK): 29% of total
- Total T Cells, in percent of total ([1]; 3 months after MEK): 67% of total
- Total Lymphocytes (T+B+NK), in percent of total ([1]; 3 months after MEK): 104% of total
- Total NK (CD16+CD56) Natural killer cells, Cells/μl ([1]; 4 months after MEK): 349 Cells/μl
- Total T Cells, Cells/μl ([1]; 4 months after MEK): 694 Cells/μl
- CD4/CD3(CD8) ([1]; 4 months after MEK): 1.53
- Total NK (CD16+CD56) Natural killer cells, in percent of total ([1]; 4 months after MEK): 26% of total
- Total T Cells, in percent of total ([1]; 4 months after MEK): 79% of total
- Total Lymphocytes (T+B+NK), in percent of total ([1]; 4 months after MEK): 103% of total
- Total NK (CD16+CD56) Natural killer cells, Cells/μl ([1]; 5 months after MEK): 368 Cells/μl
- Total T Cells, Cells/μl ([1]; 5 months after MEK): 637 Cells/μl
- CD4/CD3(CD8) ([1]; 5 months after MEK): 1.80
- Total NK (CD16+CD56) Natural killer cells, in percent of total ([1]; 5 months after MEK): 25% of total
- Total T Cells, in percent of total ([1]; 5 months after MEK): 73% of total
- Total Lymphocytes (T+B+NK), in percent of total ([1]; 5 months after MEK): 102% of total
- Total NK (CD16+CD56) Natural killer cells, Cells/μl ([1]; 6 months after MEK): 359 Cells/μl
- Total T Cells, Cells/μl ([1]; 6 months after MEK): 568 Cells/μl
- CD4/CD3(CD8) ([1]; 6 months after MEK): 1.61
- Total NK (CD16+CD56) Natural killer cells, in percent of total ([1]; 6 months after MEK): 27% of total
- Total T Cells, in percent of total ([1]; 6 months after MEK): 80% of total
- Total Lymphocytes (T+B+NK), in percent of total ([1]; 6 months after MEK): 103% of total
- CD4/CD3(CD8), NK (CD16+CD56), and total T cells ([1]; cancer patients, MEK in conjunction with chemo and/or radiation therapies, after one month of MEK administration): either were maintained normally or increased
- Total T (CD3+), Percent ([2]; Aug 12): 74%
- Total T (CD3+), Percent ([2]; Jul 14): 70%
- T Helper (CD3+, CD4+), Cell Number/μl ([2]; Aug 12): 447 Cell Number/μl
- T Suppressor (CD3+, CD8+), Cell Number/μl ([2]; Aug 12): 931 Cell Number/μl
- Total B (CD19+), Cell Number/μl ([2]; Aug 12): 74 Cell Number/μl
- Total NK (CD16+/CD56+), Cell Number/μl ([2]; Aug 12): 447 Cell Number/μl
- Total T (CD3+), Cell Number/μl ([2]; Aug 12): 1368 Cell Number/μl
- Ratio T Helper Cells/ CD3, CD4/CD3, CD8 ([2]; Aug 12): 0.48
- Total NK (CD16+/CD56+), Percent ([2]; Aug 12): 24%
- Total B (CD19+), Percent ([2]; Aug 12): 4%
- T Suppressor (CD3+, CD8+), Percent ([2]; Aug 12): 50%
- T Helper (CD3+, CD4+), Percent ([2]; Aug 12): 24%
- Lymphocytes T + B + NK, Percent ([2]; Aug 12): 102%
- T Helper (CD3+, CD4+), Cell Number/μl ([2]; Jul 14): 569 Cell Number/μl
- T Suppressor (CD3+, CD8+), Cell Number/μl ([2]; Jul 14): 1274 Cell Number/μl
- Total B (CD19+), Cell Number/μl ([2]; Jul 14): 54 Cell Number/μl
- Total NK (CD16+/CD56+), Cell Number/μl ([2]; Jul 14): 759 Cell Number/μl
- Total T (CD3+), Cell Number/μl ([2]; Jul 14): 1897 Cell Number/μl
- Ratio T Helper Cells/ CD3, CD4/CD3, CD8 ([2]; Jul 14): 0.45
- Total NK (CD16+/CD56+), Percent ([2]; Jul 14): 28%
- Total B (CD19+), Percent ([2]; Jul 14): 2%
- T Suppressor (CD3+, CD8+), Percent ([2]; Jul 14): 47%
- T Helper (CD3+, CD4+), Percent ([2]; Jul 14): 21%
- Lymphocytes T + B + NK, Percent ([2]; Jul 14): 100%
- Numbers of T cell sub-types ([2]; platinum compound and MEK for about two months): did not decrease but increased instead
- progress of the tumor ([3]; CT and MRI examination): slowed and partially disappeared
- appetite and sleep ([3]; after the therapy): improved
- blood pressure, pulse and liver and stomach functions ([3]; after the therapy): normal
- influenza infection ([3]; during the influenza epidemic, hospital ward): not infected
- side effects in the GI, respiratory, skin, and peripheral circulation systems ([3]; during therapy with radiation, chemo, and MEK): no side effects
- white blood cell counts and lymphocytes ([3]; during therapy with radiation, chemo, and MEK, MEK IV 30-120 μg/kg): decreased to some extent
- CD3/CD4 sub-group of T lymphocytes ([3]; monitored monthly): increased
- CD3/CD8 and total CD3 subgroups ([3]; monitored monthly): decreased
- total numbers of NK cells ([3]; monitored monthly): increased
